Reference: paper PMC11713119, “Optimizing metabolic stability of phosphodiesterase 5 inhibitors: Discovery of a potent N‐(pyridin‐3‐ylmethyl)quinoline derivative targeting synaptic plasticity” (Alzheimer's & Dementia, 2025)

Biological target: T1, Phosphodiesterase 5 (PDE5) (Homo sapiens, UniProt O76074)
T1 construct: gene PDE5A
Experiment: PDE5 inhibition IC50 (assay details not given)
Type: biochemical

Row | IC50 [µM] | Structure (SMILES)
1 | 0.02 | COc1ccc(CNc2c(CO)cnc3c(C4CC4)cc(C#N)cc23)cn1 [4b, 8‐cyclopropyl‐3‐(hydroxymethyl)‐4‐(((6‐methoxypyridin‐3‐yl)methyl)amino)quinoline‐6‐carbonitrile]
2 | 0.00027 | COc1ccc(CNc2c(CO)cnc3c(C4CC4)cc(C#N)cc23)cc1Cl [7a, 4‐((3‐chloro‐4‐methoxybenzyl)amino)‐8‐cyclopropyl‐3‐(hydroxymethyl)quinoline‐6‐carbonitrile]
